These results are taken from patent US20190030036A1, “PHOSPHODIESTERASE INHIBITOR TREATMENT” (Cyrano Therapeutics, Inc., priority 2013, published 2019).

The subject of data set [1] is patients with hyposmia and hypogeusia. Nature of the data set: Gustometry (DT, RT, ME, HR for 4 tastants) (Example 8). The data set is classed as in vivo, human. The source says: Measurements included determination of detection thresholds (DTs), recognition thresholds (RTs), magnitude estimation (ME), and hedonic response (HR) for 4 odors (e.g., pyridine [dead fish], nitrobenzene [bitter almond], thiophene [petroleum], and amyl acetate [banana oil]) (olfactometry) and for 4 tastants (e.g., sodium chloride [salt], sucrose [sweet], […] [sour], and urea [bitter]) (gustometry).

A further data set has as its system cGMP. Nature of the data set: Parotid saliva cGMP after oral theophylline (Example 2). The data set is classed as in vivo, human. The note with it: for saliva cGMP levels over initial values: improved patients; for cGMP: parotid saliva. The protocol: Parotid saliva was collected from each patient by application of a Lashley cup over Stensen's duct with lingual stimulation by placement of concentrated lemon juice. Saliva was collected in plastic tubes and stored at −20° C. until assayed. cAMP and cGMP were measured in saliva by a sensitive 96 plate spectrophotometric assay (R&D Systems, Minneapolis, Minn.).
All patients were placed in a fixed design open label clinical trial with treatment with oral theophylline. Treatment consisted of fixed treatment periods of two-eight months with sequential doses of the drug at 200 mg, 400 mg and 600 mg. At termination of each of these intervals, patients returned to study site for reevaluation. At the end of each interval subjective responses to treatment were measured with a modification of the 0-100 scale previously used. Subjective responses to treatment were graded on a sliding scale from −100−0-+100 with patients recording improvement (+0-+100), no improvement (0) or worsening (0-−100) of their overall smell function. If overall smell function improved ≥5% they were considered to improve clinically (1). If smell function improved <5% they were considered not to improve (1). At the end of each interval subjective measurements of smell function, measurements of DT, RT, ME and H and measurements of parotid saliva for levels of cAMP and cGMP were obtained. In addition, blood plasma was obtained by venipuncture, placed in ice into zinc free tubes which contained 100 mg zinc free heparin, centrifuged at 3000 rpm for 10-20 min, the plasma transferred to plastic PCR tubes and stored at −20° C. until assayed. Theophylline was assayed by a fluorescence polarization assay (Abbott, Chicago, Ill.), as previously described.
Data for the cyclic nucleotides from these 31 patients was not analyzed until the entire study of the 312 patients in Example 1 was assembled and analyzed in its entirety. After completion of these analyses, all data for parotid saliva cAMP and cGMP from all patients in whom salivary cAMP and cGMP were obtained were assembled. Levels of salivary cyclic nucleotides varied widely. Initially, without external criteria, there was no way to understand these disparate data. […] In a similar manner, measurements of each patient's plasma theophylline level at each dosage of theophylline (at 200 mg, 400 mg, 600 mg of theophylline) were categorized. The two patient groups were also analyzed post hoc with respect to type of smell loss and etiology of smell loss.

Data set [2] in a line: Plasma theophylline level, intranasal theophylline pilot study (Example 7). The data set is classed as in vivo, human. The note with it: intranasal theophylline 20 μg per naris once a day; eight patients.
Description: Blood was obtained by venipuncture to collect plasma and red blood cells used to measure trace metals (Cu, Zn, Mg), various enzymes, theophylline and other chemical moieties.
For the next data set, the system named is patients with hyposmia. Nature of the data set: Side effects of intranasal theophylline (Example 7). The data set is classed as in vivo, human. The note with it: intranasal theophylline 20 μg per naris once a day. An excerpt: Ten hyposmia patients were enrolled in the study; eight patients have completed all four phases of the study with the remaining two patients still in process.

As to `Cn1c(=O)c2[nH]cnc2n(C)c1=O` [theophylline], the “Magnitude estimations for all tastants” value in data set [1] (intranasal theophylline vs before any treatment or after oral theophylline) is listed as “higher (more intense)”. In data set [1] (intranasal theophylline vs before treatment or after oral theophylline), the “DTs and RTs for all tastants” value was “lower (more sensitive)”. The entries for the “saliva cGMP levels over initial values” with cGMP (oral theophylline 400 mg) and with cGMP (oral theophylline 600 mg) were 275% and 338%, respectively. For the same compound, the cGMP with cGMP (oral theophylline 200 mg, patients with improved smell function (15)) was 0.08 ± 0.016 pmol/mL; in the data set with cGMP (oral theophylline 200 mg, patients with unimproved smell function (9)), 0.07 ± 0.018 pmol/mL; with cGMP (oral theophylline 400 mg, patients with unimproved smell function (4)), 0.05 ± 0.014 pmol/mL; in the data set with cGMP (oral theophylline 600 mg, patients with unimproved smell function (5)), 0.04 ± 0.07 pmol/mL. In addition, the “mean serum theophylline level” value (during intranasal theophylline 20 μg/d in each naris) was 0.0 (0.0). The “mean (SEM) serum theophylline level” value (human, in vivo, po) was 6.4 (2.0) mg/L. Further, the plasma theophylline levels result in data set [2] is reported as “zero”. In addition, in the data set with patients with hyposmia, the “side effects of intranasal use” value is “No side effects”.
